Data taken from patent US20090275653A1, “POLYMORPHIC FORMS OF LADOSTIGIL TARTRATE” (priority 2005, published 2009).
Entries after “also recorded” stand apart in the source; their conditions may differ.

Key:
Type in all cases: physicochemical
[1] = Water content (Karl Fischer) and loss on drying (TGA) of the form as obtained; settings: for Water content: by weight
Method: (§1) TGA analysis was performed using a Mettler M3 meter. The weight of the samples was about 10 mg. The samples were scanned at a rate of 10° C./min from 25° C. to 200° C. The oven was constantly purged with nitrogen gas at a flow rate of 40 ml/min. Standard 70 μl alumina crucibles covered by lids with 1 hole were used.
(§2) The water content of ladostigil tartrate was measured by methods known in the art, such Karl Fischer analysis.

[2] = Effect of micronization, pressing and grinding (XRD)
Method: The effects of micronization, pressing (1 minute at 100 metric tons) and grinding were determined by XRD and the following results were obtained: […]

[3] = Hygroscopicity study: exposure to 0-100% relative humidity at room temperature (Karl Fischer, TGA, crystal form by XRD)
From the text: Form E was placed for 1 week under 0-100% relative humidity at room temperature. Table 1 summarizes the results:
Form F was placed for 14 days under 0-100% relative humidity at room temperature. Table 2 summarizes the results:
Form H was placed for 14 days under 0-100% relative humidity at room temperature. Table 3 summarizes the results:
Form J1 was placed for 9 days under 0-100% relative humidity at room temperature. Table 4 summarizes the results:
Table 5 summarizes the results:
(§3) X-Ray powder diffraction data were obtained by method known in the art using a SCINTAG powder X-Ray diffractometer model X'TRA equipped with a solid state detector. Copper radiation of 1.5418 Å was used. A round aluminum sample holder with round zero background quartz plate, with a cavity of 25(diameter)*0.5(depth) mm was used.
as §1, §2
Crystal form was determined after equilibration of ladostigil tartrate form A for 10 days at various relative humidities at room temperature.
Form A1 was exposed at various humidity conditions at room temperature for 13 days.
Ladostigil tartrate form A1 was exposed to various humidity conditions at room temperature for 14 days. TGA was performed, and the crystal form was analyzed.
A mixture of ladostigil tartrate form A1 and E, containing primarily form A1, was exposed at various humidity conditions at room temperature for 14 days.
Form E was placed for 7 days under 0-100% relative humidity at room temperature. Table 12 summarizes the results:
Form F was placed for 14 days under 0-100% relative humidity at room temperature. Table 14 summarizes the results:
Ladostigil tartrate Form H was exposed for 14 days under 0-100% relative humidity at room temperature. Table 15 summarizes the results:
Crystal ladostigil tartrate Form J1 was placed for 9 days under 0-100% relative humidity at room temperature.

[4] = Effect of heating on polymorph form
Method: as §3
The heated sample was analyzed by XRD. Form A1 was obtained.
Various polymorph forms and mixtures thereof were heated. The heating conditions and resulting polymorph forms are described in table 17 below: […]

[5] = pressing 1 minute at 100 metric tons
[6] = 100% RH, equilibration 10 days, room temperature
[7] = 0% RH, 14 days, room temperature
[8] = 20% RH, 14 days, room temperature
[9] = 40% RH, 14 days, room temperature
[10] = 60% RH, 14 days, room temperature
[11] = 80% RH, 14 days, room temperature
[12] = 100% RH, 14 days, room temperature
[13] = 0% RH, 9 days, room temperature
[14] = 40% RH, 9 days, room temperature
[15] = 60% RH, 9 days, room temperature
[16] = 100% RH, 9 days, room temperature

For “carbamic acid, ethylmethyl-, (3R)-2,3-dihydro-3-(2-propynylamino)-1H-inden-5-yl ester, (2R,3R)-2,3-dihydroxybutanedioate (2:1) [Essentially Amorphous Form]”, the “Weight loss / loss on drying by TGA” value [1] was “about 5%” and the Water content [1] was “about 2%”.
With “carbamic acid, ethylmethyl-, (3R)-2,3-dihydro-3-(2-propynylamino)-1H-inden-5-yl ester, (2R,3R)-2,3-dihydroxybutanedioate (2:1) [Form A]” the “Crystal form after grinding” value ([2]; grinding) was “mixture of Forms A and A1”, the “Crystal form after pressing” value [2, 5] was “mainly to Form A1” and the Crystallinity after pressing [2, 5] was “lose some extent of crystallinity”. For the same substance, the Water content ([3]; 20% RH, equilibration 10 days, room temperature) was 0.3%, the Water content ([3]; 40% RH, equilibration 10 days, room temperature) was 0.3% and the Water content ([3]; 60% RH, equilibration 10 days, room temperature) was 0.3%. The Water content ([3]; 80% RH, equilibration 10 days, room temperature) was 0.3%, the Crystal Form [3, 6] was “stable” and the Water content [3, 6] was 0.2%. The Hygroscopicity ([3]; conclusion in words) was “neither Form A nor Form A1 is hygroscopic; also recorded: non-hygroscopic”, the “Crystal form upon exposure to high relative humidity” value ([3]; high relative humidity, in words) was “does not change crystalline form” and the “Weight loss / loss on drying by TGA” value [1] was “about 0.3%”. For the same substance, the Water content [1] was “about 0.3%”.
In the case of “carbamic acid, ethylmethyl-, (3R)-2,3-dihydro-3-(2-propynylamino)-1H-inden-5-yl ester, (2R,3R)-2,3-dihydroxybutanedioate (2:1) [Form B]”, the “Resulting form after heating/drying” value ([4]; 80° C., time not specified) is reported as “mixture of Form A1 and form E, primarily form A1” and the “Weight loss / loss on drying by TGA” value [1] is reported as “about 1%”.
For “carbamic acid, ethylmethyl-, (3R)-2,3-dihydro-3-(2-propynylamino)-1H-inden-5-yl ester, (2R,3R)-2,3-dihydroxybutanedioate (2:1) [Form C]”, the “Resulting form after heating/drying” value ([4]; 50° C. under vacuum, 1 hour) was “Form C was still detected”, the “Resulting form after heating/drying” value ([4]; 50° C. under vacuum, 12 hours) was “Form B” and the “Resulting form after heating/drying” value ([4]; 55° C. under vacuum, 17 hours) was “Form E”. For the same substance, the “Resulting form after heating/drying” value ([4]; 55° C., 17 hours) was “Form B”, the “Resulting form after heating/drying” value ([4]; 55° C., 19 hours) was “Form B” and the “Weight loss / loss on drying by TGA” value [1] was “about 40%”. For the same substance, the Water content [1] was “about 2%”.
With “carbamic acid, ethylmethyl-, (3R)-2,3-dihydro-3-(2-propynylamino)-1H-inden-5-yl ester, (2R,3R)-2,3-dihydroxybutanedioate (2:1) [Form F]” the “Crystal Form (resulting form)” value [3, 7] was “Form F”, the “Water content by Karl Fisher” value [3, 7] was 1.3% and the “Crystal Form (resulting form)” value [3, 8] was “Form F”. For the same substance, the “Loss on Dry by TGA” value [3, 8] was 3.0%, the “Water content by Karl Fisher” value [3, 8] was 2.2% and the “Crystal Form (resulting form)” value [3, 9] was “Form F”. For the same substance, the “Loss on Dry by TGA” value [3, 9] was 2.9%, the “Water content by Karl Fisher” value [3, 9] was 2.6% and the “Crystal Form (resulting form)” value [3, 10] was “Form A1 + ~10% E”. The “Loss on Dry by TGA” value [3, 10] was 0.3%, the “Water content by Karl Fisher” value [3, 10] was 0.3% and the “Crystal Form (resulting form)” value [3, 11] was “Form A1 + ~20% A”. For the same substance, the “Loss on Dry by TGA” value [3, 11] was 0.2%, the “Water content by Karl Fisher” value [3, 11] was 0.3% and the “Loss on Dry by TGA” value [3, 12] was 0.3%. The “Water content by Karl Fisher” value [3, 12] was 0.3%, the “Relative humidity range in which the form is stable” value ([3]; 14 days, room temperature) was 0-40 % RH and the “Weight loss / loss on drying by TGA” value [1] was “about 3%”. The Water content [1] was 1.3-2.6%.
With “carbamic acid, ethylmethyl-, (3R)-2,3-dihydro-3-(2-propynylamino)-1H-inden-5-yl ester, (2R,3R)-2,3-dihydroxybutanedioate (2:1) [Form H]” the “Crystal Form (resulting form)” value [3, 7] was “Form H”, the “Loss on Dry by TGA” value [3, 7] was 6.1% and the “Water content by Karl Fisher” value [3, 7] was 0.42%. The “Crystal Form (resulting form)” value [3, 8] was “Form F”, the “Loss on Dry by TGA” value [3, 8] was 5.2% and the “Water content by Karl Fisher” value [3, 8] was 0.7%. The “Crystal Form (resulting form)” value [3, 9] was “Form L”, the “Loss on Dry by TGA” value [3, 9] was 2.7% and the “Water content by Karl Fisher” value [3, 9] was 1.4%. The “Crystal Form (resulting form)” value [3, 10] was “Form A1 + ~30% E”, the “Loss on Dry by TGA” value [3, 10] was 0.5% and the “Water content by Karl Fisher” value [3, 10] was 0.3%. For the same substance, the “Crystal Form (resulting form)” value [3, 11] was “Form A1 + ~20% A”, the “Loss on Dry by TGA” value [3, 11] was 0.2% and the “Water content by Karl Fisher” value [3, 11] was 0.2%. The “Crystal Form (resulting form)” value [3, 12] was “Form A + ~30% A1”, the “Loss on Dry by TGA” value [3, 12] was 0.2% and the “Water content by Karl Fisher” value [3, 12] was 0.3%. For the same substance, the “Weight loss / loss on drying by TGA” value [1] was “about 6%” and the Water content [1] was “about 0.6%”.
With “carbamic acid, ethylmethyl-, (3R)-2,3-dihydro-3-(2-propynylamino)-1H-inden-5-yl ester, (2R,3R)-2,3-dihydroxybutanedioate (2:1) [Form J1]” the “Crystal Form” value [3, 13] was “Form J1”, the “Loss on Dry by TGA” value [3, 13] was 5.4% and the “Water content by Karl Fisher” value [3, 13] was 0.1%. For the same substance, the “Crystal Form” value ([3]; 20% RH, 9 days, room temperature) was “partly to Form K; also recorded: Form K + ~20% J1”, the “Crystal Form” value [3, 14] was “Form K” and the “Loss on Dry by TGA” value [3, 14] was 0.8%. For the same substance, the “Water content by Karl Fisher” value [3, 14] was 0.2%, the “Crystal Form” value [3, 15] was “Form K” and the “Loss on Dry by TGA” value [3, 15] was 0.5%. For the same substance, the “Water content by Karl Fisher” value [3, 15] was 0.2%, the “Crystal Form” value ([3]; 80% RH, 9 days, room temperature) was “Form A1 + ~20% A” and the “Crystal Form” value [3, 16] was “Form A + ~30% A1”. The “Loss on Dry by TGA” value [3, 16] was 0.1%, the “Water content by Karl Fisher” value [3, 16] was 0.0% and the “Weight loss / loss on drying by TGA” value [1] was “about 10%”. For the same substance, the Water content [1] was “about 1%”.
In the case of “carbamic acid, ethylmethyl-, (3R)-2,3-dihydro-3-(2-propynylamino)-1H-inden-5-yl ester, (2R,3R)-2,3-dihydroxybutanedioate (2:1) [Form K]”, the “Relative humidity range in which the form is stable” value ([3]; from the 9 day study of Form J1, room temperature) is reported as 20-60 % RH, the “Weight loss / loss on drying by TGA” value [1] is reported as 0.5-0.8% and the Water content [1] is reported as “about 0.2%”.
In the case of “carbamic acid, ethylmethyl-, (3R)-2,3-dihydro-3-(2-propynylamino)-1H-inden-5-yl ester, (2R,3R)-2,3-dihydroxybutanedioate (2:1) [Form L]”, the “Resulting form after heating/drying” value ([4]; 60° C. in conventional oven, 2 hours) is reported as “polymorphically stable”, the “Weight loss / loss on drying by TGA” value [1] is reported as 2.7-13.8% and the Water content [1] is reported as 0.6-1.4%.
